We go through one compound from PMC9011347, “Small-Molecule Inhibitors Targeting Lipolysis in Human Adipocytes” (Journal of the American Chemical Society, 2022).

pIC50: −log10 of the molar value. Where two headings read alike, the source gives them in different places.

For this assay, the system named is human Simpson–Golabi–Behmel syndrome (SGBS) adipocytes. Description: Lipolysis in SGBS adipocytes (FA, glycerol release, DAG content). The format is cell-based. The note with it: for pIC50: Homo sapiens, 1 h preincubation, isoproterenol 1 μM. How it is done: Figure 3 NG-497 inhibits lipolysis in human SGBS and primary human adipocytes. SGBS adipocytes were preincubated with NG-497 for 1 h at the indicated concentrations. Subsequently, lipolysis was stimulated with isoproterenol (1 μM) and (a) FA and (b) glycerol release was determined after 1 h using commercial kits. (c) Dose-dependent inhibition of isoproterenol-stimulated FA release from SGBS adipocytes by the HSL inhibitor 76-068 (HSLi). […] (e) DAG accumulation in SGBS adipocytes was analyzed by thin-layer chromatography (TLC) following 1 h incubation with HSLi (25 μM), NG-497 (40 μM), and a combination of both inhibitors. (f) Primary human adipocytes were prelabeled with 1 μCi [9,10-^3H] oleic acid per well for 12 h. Subsequently, basal and Forskolin (5 μM)-stimulated release of radioactivity was determined via liquid scintillation over a period of 2 h in the presence or absence of NG-497 (40 μM). FA release was calculated based on FA concentrations in conditioned media after 2 h as determined using a commercial kit. (g) Primary human adipocytes were preincubated in the presence or absence of NG-497 (40 μM) for 1 h. Subsequently, the medium was changed and FA release was monitored over a period of 3 h under the indicated conditions. Data are presented as mean ± SD. Statistical significance was determined via ANOVA followed by Bonferroni post hoc test (^#p < 0.05; ^##p < 0.01; ^###p < 0.001). TEXT PRINTED IN THE PICTURE: (a) NG-497: IC50 (μM) 1.5 ± 0.5 | (b) NG-497: IC50 (μM) 1.5 ± 0.5 | (c) HSLi: IC50 (nM) 100 ± 15 | (d) NG-497: IC50 (μM) 0.5 ± 0.1 […]
Lipidomic analysis. HepG2 cells were treated for 3 hours with 40 µM NG-497 or DMSO as control. Subsequently, cells were washed three times with PBS, harvested, and extracted with 700 µl MTBE:MeOH (10:3, v:v) for 1 hour at 4 °C on a Thermomix shaker at 1,400 rpm. 200 µl H2O were added, shaken for another 20 min, centrifuged for 10 min at 20,000 g for phase separation.
500 µl of the organic phase was transferred and evaporated under a stream of nitrogen. […] The aqueous phase was dried, the protein pellet incubated overnight with 400 µl NaOH/SDS (0.3 M/0.1%) and total protein content analyzed by the BCA protein assay (Thermo Fisher Scientific) according to the manufacturer’s instructions.
Lipid samples were separated on an Agilent 1290 Infinite II UHPLC with gradient elution over a Zorbax Extend-C18 reversed phase column (2.1 x 50 mm, 1.8µm) at 50°C. […] Samples were analyzed on an Agilent 6560 Ion Mobility Q-ToF mass spectrometer in Qtof-only mode over a scan range of 100 to 1700 m/z in negative mode and 150 to 1700 m/z in positive mode with automatic MS/MS generation. All samples were analyzed in triplicates using iterative acquisition mode to increase the number of MS/MS spectra for better annotation. […]

What is called pIC50 is −log10 of the IC50, conventionally taken in molar units.

For the compound `CCOc1ccc(-c2cc(OC)cc(C(=O)OC(C)C)n2)cc1` [NG-497], the negative logarithm of the IC50 (pIC50) is 5.82 (1 h, read-out: IC50 of isoproterenol-stimulated FA release) and 5.82 (1 h, read-out: IC50 of isoproterenol-stimulated glycerol release). For the same compound, for the setting “NG-497 40 μM combined with HSLi 25 μM, 1 h, TLC”, the “DAG accumulation under combined inhibition of HSL and ATGL” value is on record as “prevented DAG accumulation”. Also, under “concentrations ≥10 μM”, the effect on lipolysis result is recorded as “almost completely abolished lipolysis”.
